According to PMC11389776, “Positive allosteric modulation of a GPCR ternary complex” (Science Advances, 2024):

Experiments:
M2 mAChR [1] = target: T1, M2 mAChR (Homo sapiens, UniProt P08172); assay: Gi1 (TRUPATH) protein activation assay in M2 mAChR FlpIn CHO cells; format: cell-based; conditions: for Log τ: operational efficacy, operational model of agonism, LY211 value is an estimate (saturation not reached)
T1 construct: expressed in transfected cells
T1 sequence (P08172 1-466): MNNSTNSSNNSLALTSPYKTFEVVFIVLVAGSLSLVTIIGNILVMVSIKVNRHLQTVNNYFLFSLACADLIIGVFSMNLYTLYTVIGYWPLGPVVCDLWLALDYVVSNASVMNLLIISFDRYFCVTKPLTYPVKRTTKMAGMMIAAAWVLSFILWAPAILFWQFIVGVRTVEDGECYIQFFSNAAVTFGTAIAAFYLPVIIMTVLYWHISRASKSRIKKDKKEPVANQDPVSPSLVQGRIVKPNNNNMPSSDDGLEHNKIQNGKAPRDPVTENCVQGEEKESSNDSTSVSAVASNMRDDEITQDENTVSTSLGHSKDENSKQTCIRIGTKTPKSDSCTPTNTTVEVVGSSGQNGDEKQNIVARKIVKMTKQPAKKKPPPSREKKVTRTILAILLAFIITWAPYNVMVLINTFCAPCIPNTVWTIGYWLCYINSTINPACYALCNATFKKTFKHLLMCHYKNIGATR
Description: Upon 60 to 80% confluence, WT hM2 mAChR expressing FlpIn CHO cells were transfected transiently using polyethylenimine (Sigma-Aldrich) with 10 ng per well of each the G protein TRUPATH biosensors pcDNA5/FRT/TO-Gαi1-RLuc8/pcDNA3.1-β3/pcDNA3.1-Gγ9-GFP2 giving a ratio of 1:1:1 ratio with 30 ng in total. Cells were plated at 30,000 cells per well into 96-well Greiner CELLSTAR white-walled plates (Sigma-Aldrich). Forty-eight hours later, cells were washed with 200 μl of PBS and replaced with 1x Hanks’ balanced salt solution supplemented with 10 mM Hepes. […] The ratio was vehicle corrected using the initial four baseline measurements and then baseline corrected again using the vehicle-treated wells. Concentration-response curves were constructed from the area under the curve (AUC) of the double baseline-corrected kinetic traces and normalized to the highest AUC value in each dataset.
(§1) All data were analyzed using GraphPad Prism 9 (GraphPad Software, San Diego, CA). […] For competition binding experiments between [^3H]-NMS and a range of concentrations of unlabeled orthosteric agonist at M2 mAChR nanodiscs in the presence of G protein and for competition binding at M2 mAChR membranes, data were fit to a two-site competition binding model or a one-site competition binding model. […] Monoexponential decay and one-phase association equations were fit to the radioligand dissociation and association data at M2 mAChR nanodiscs.

M2 mAChR [2] = target: T2, M2 mAChR (Homo sapiens, UniProt P08172, DEL226-389); assay: [3H]-NMS competition binding at M2 mAChR nanodiscs with or without Gi1 protein
T2 construct: made in house; host or cells: Sf9 insect cells (receptor, baculovirus); Trichoplusia ni Hi5 cells (G protein); E. coli BL21(DE3) (cMSP1D1 scaffold)
T2 sequence (P08172 with tags, fused parts or gaps DEL226-389): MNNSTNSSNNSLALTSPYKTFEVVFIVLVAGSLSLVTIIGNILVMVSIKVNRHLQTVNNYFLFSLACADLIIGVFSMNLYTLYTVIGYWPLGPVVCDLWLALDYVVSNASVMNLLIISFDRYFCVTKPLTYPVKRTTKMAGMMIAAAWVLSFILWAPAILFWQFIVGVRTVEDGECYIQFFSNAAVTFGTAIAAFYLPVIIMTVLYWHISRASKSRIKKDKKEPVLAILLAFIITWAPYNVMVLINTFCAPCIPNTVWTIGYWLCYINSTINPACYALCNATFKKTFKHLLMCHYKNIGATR
Description: (§2) The affinity of [^3H]-NMS for M2 mAChR in nanodiscs, as well as the concentration of receptor in nanodiscs, was determined through saturation binding with [^3H]-NMS. M2 nanodiscs were incubated with a range of concentrations of [^3H] […] Membrane equilibrium binding experiments were performed with 15 μg of membrane expressing the WT hM2 mAChR in a 300-μl reaction volume of binding buffer with or without 100 μM Gpp[NH]pp in deep 96-well plates for 6 hours at RT. […] For all radioligand binding experiments, nonspecific binding was defined by 10 μM Atr and the assay was terminated through rapid filtration through Whatman GF/B filter plates using a 96-well harvester (PerkinElmer). Filter plates were dried overnight, and radioactivity was determined by adding 40 μl of MicroScint-O scintillation fluid and counting in a MicroBeta^2 Plate Counter (PerkinElmer Life Sciences).
as §1

M2 mAChR [3] = target: T2, M2 mAChR; assay: [3H]-NMS interaction binding with LY211 and/or G protein at M2 mAChR nanodiscs (full interaction and titration)
Description: as §2, §1

M2 mAChR [4] = target: T1, M2 mAChR; assay: Kinetic Gαi1 (TRUPATH) protein activation assay in M2 mAChR CHO cells; format: cell-based; conditions: for Steady state: final effect level, normalized to ACh
Description: Upon 60 to 80% confluence, WT hM2 mAChR expressing FlpIn CHO cells were transfected transiently using polyethylenimine (Sigma-Aldrich) with 10 ng per well of each the G protein TRUPATH biosensors pcDNA5/FRT/TO-Gαi1-RLuc8/pcDNA3.1-β3/pcDNA3.1-Gγ9-GFP2 giving a ratio of 1:1:1 ratio with 30 ng in total. Cells were plated at 30,000 cells per well into 96-well Greiner CELLSTAR white-walled plates (Sigma-Aldrich). Forty-eight hours later, cells were washed with 200 μl of PBS and replaced with 1x Hanks’ balanced salt solution supplemented with 10 mM Hepes. […] Cells were further incubated for 10 min at 25°C before BRET measurements were performed on a PHERAstar FSX plate reader (BMG Labtech) using 410/80-nm and 515/30-nm filters. […] The BRET signal was calculated as the ratio of 515/30-nm emission over 410/80-nm emission. The ratio was vehicle corrected using the initial four baseline measurements and then baseline corrected again using the vehicle-treated wells. Concentration-response curves were constructed from the area under the curve (AUC) of the double baseline-corrected kinetic traces and normalized to the highest AUC value in each dataset.
(§3) All data were analyzed using GraphPad Prism 9 (GraphPad Software, San Diego, CA). Concentration-response curves were fit with a three-parameter logistic equation to quantify potency (pEC50) and an operational model of agonism to derive an efficacy parameter (log τ) ([69]). […] For competition binding experiments between [^3H]-NMS and a range of concentrations of unlabeled orthosteric agonist at M2 mAChR nanodiscs in the presence of G protein and for competition binding at M2 mAChR membranes, data were fit to a two-site competition binding model or a one-site competition binding model. […] Monoexponential decay and one-phase association equations were fit to the radioligand dissociation and association data at M2 mAChR nanodiscs. Kinetic TRUPATH data were analyzed using a “baseline then rise to steady state with drift” equation ([44]).

M2ΔICL3 mAChR = target: T3, M2ΔICL3 mAChR (Homo sapiens, UniProt P08172, DEL226-389); assay: ERK1/2 phosphorylation assay in M2ΔICL3 mAChR FlpIn CHO cells; format: cell-based; conditions: pERK1/2, M2ΔICL3 mAChR FlpIn CHO cells, normalized to FBS; three-parameter logistic
T3 construct: expressed in transfected cells
T3 sequence (P08172 with tags, fused parts or gaps DEL226-389): T2 sequence (P08172 with tags, fused parts or gaps DEL226-389)
Description: as §3

M2 mAChR [5] = target: T2, M2 mAChR; assay: [3H]-NMS association and dissociation assays at M2 mAChR nanodiscs; format: binding
Description: The affinity of [^3H]-NMS for M2 mAChR in nanodiscs, as well as the concentration of receptor in nanodiscs, was determined through saturation binding with [^3H]-NMS. M2 nanodiscs were incubated with a range of concentrations of [^3H] NMS in a final volume of 200 μl of binding buffer [20 mM Hepes (pH 7.5), 100 mM NaCl, 10 mM MgCl2, and 0.5% bovine serum albumin] for 6 hours at RT. […] Membrane equilibrium binding experiments were performed with 15 μg of membrane expressing the WT hM2 mAChR in a 300-μl reaction volume of binding buffer with or without 100 μM Gpp[NH]pp in deep 96-well plates for 6 hours at RT. […] For all radioligand binding experiments, nonspecific binding was defined by 10 μM Atr and the assay was terminated through rapid filtration through Whatman GF/B filter plates using a 96-well harvester (PerkinElmer). Filter plates were dried overnight, and radioactivity was determined by adding 40 μl of MicroScint-O scintillation fluid and counting in a MicroBeta^2 Plate Counter (PerkinElmer Life Sciences).
as §3

[6] = saturating amount of drug alone
[7] = saturating orthosteric agonist + LY211
[8] = saturating amount of drug alone, baseline then rise to steady state with drift model

## C[N+](C)(C)CC#CCOC1=NOCC1 [Ipx, iperoxo]
M2 mAChR [1]; Gi1 activation (BRET), M2 mAChR FlpIn CHO cells, three-parameter logistic equation
  pEC50: 9.18 ± 0.22 (7)
M2 mAChR [1]
  Log τ: 1.61 ± 0.25 (7)
M2 mAChR [2]; M2 mAChR nanodiscs, shift promoted by Gi1
  increase in affinity between pKi(Low) and pKi(High): 112 fold
M2 mAChR [2]; M2 mAChR nanodiscs, without G protein
  increase in agonist affinity in the presence of 10 μM LY211: 112 fold
M2 mAChR [2]; Nanodisc, cooperativity between agonist and G protein (Gi1), ATCM
  (G protein) - Log α: 2.33 ± 0.18 (3)
M2 mAChR [2]; Nanodisc, two-site competition binding model, 6 hours at RT
  pKi(Low): 7.72 ± 0.06 (11)
M2 mAChR [2]; fraction of receptors in high-affinity state, two-site model, R:G 1:0
  FracHi - M2 mAChR nanodiscs - receptor:G protein molar ratio 1:0: 0.12 ± 0.04 (11)
M2 mAChR [2]; fraction of receptors in high-affinity state, two-site model, R:G 1:500 (Gi1)
  FracHi - M2 mAChR nanodiscs - receptor:G protein molar ratio 1:500: 0.68 ± 0.06 (3)
M2 mAChR [2]; fraction of receptors in high-affinity state, two-site model, R:G 1:1000 (Gi1)
  FracHi - M2 mAChR nanodiscs - receptor:G protein molar ratio 1:1000: 0.76 ± 0.06 (3)
M2 mAChR [2]; fraction of receptors in high-affinity state, two-site model, R:G 1:2000 (Gi1)
  FracHi - M2 mAChR nanodiscs - receptor:G protein molar ratio 1:2000: 0.91 ± 0.05 (3)
M2 mAChR [3]; Full interaction, − G protein heterotrimer, cooperativity between orthosteric agonist and LY211, ATCM
  (LY211) - Log αAgonist: 2.05 ± 0.21 (4)
M2 mAChR [4]; [6]
  Steady state: 102 ± 0.95 (3)
M2 mAChR [4]; [7]
  Steady state: 114 ± 0.68 (4)
  Initial rate: 586 ± 26.8 (4) BRET units min^−1
M2 mAChR [4]; [8]
  Initial rate: 217 ± 6.48 (3) BRET units min^−1
M2ΔICL3 mAChR
  pEC50: 8.23 ± 0.16

## Cc1c(Cl)c(OCC(=O)N2CCN(C)CC2)nc2sc(C(=O)NC3CC3)c(N)c12 [LY211, LY2119620]
M2 mAChR [1]
  Log τ: 0.75 ± 0.12 (4)
M2 mAChR [3]; Full interaction ACh–LY211, + 1:2000 G protein heterotrimer, not different from zero (F test), constrained to zero
  (LY211) - Log αAgonist: 0
M2 mAChR [3]; Full interaction with ACh, + 1:2000 G protein heterotrimer, ATCM
  (LY211) - Log α[3H]-NMS: −0.37 ± 0.04 (4)
M2 mAChR [3]; Titration against KD concentration of [3H]-NMS, ATCM
  Log α[3H]-NMS: −0.19 ± 0.08 (3)
M2 mAChR [3]; Titration against [3H]-NMS, + 1:2000 G protein heterotrimer, ATCM
  Log α[3H]-NMS: −0.81 ± 0.20 (3)
M2 mAChR [3]; titration against [3H]-NMS, with vs without saturating Gi1
  increase in the affinity of LY211 in the presence of G protein: sixfold
M2 mAChR [4]; [6]
  Steady state: 69.1 ± 4.22 (3)
M2 mAChR [4]; [8]
  Initial rate: 198 ± 51.0 (3) BRET units min^−1

## C[N+]1(C)[C@@H]2CC(OC(=O)[C@H](CO)c3ccccc3)C[C@H]1[C@@H]1O[C@@H]12 (stereo partly shown) [[^3H]-NMS, [^3H]-N-methylscopolamine]
M2 mAChR [5]; +10 μM LY211
  B max: 115 ± 13.2 (3)
M2 mAChR [5]; +10 μM LY211 + Gi1
  B max: 20.33 ± 4.96 (3)
M2 mAChR [5]; [3H]-NMS only, maximal binding at equilibrium, one-phase association model
  B max: 131 ± 4.71 (3)
M2 mAChR [5]; [3H]-NMS only, monoexponential decay
  k off: 0.150 ± 0.011 (4) min^−1
